The supplement of paper PMC10307832

Legend:
Assay in all cases: relative viability (nuclei count vs DMSO), 5 days (fraction); higher = more cells survive
[1] = compound: CC1=CC=C(C=C1)C(=O)CN2C3=C(CCCC3)SC2=N [Pifithrin_alpha] + COc1cc2c(Oc3ccc(NC(=O)C4(C(=O)Nc5ccc(F)cc5)CC4)cc3F)ccnc2cc1OCCCN1CCOCC1 [Foretinib] (partner 0.25 µM)
Method in brief: (§1)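 Values are medians from duplicate plates. Each reflects relative viability, defined as the nuclei count of treated wells over that of vehicle wells. Lung cancer cell lines in 1536-well plates were pin-tool dosed one day after seeding with one drug alone or with a fixed anchor-drug dose plus five library-drug doses (not always all listed) in √10 steps, then fixed, stained and imaged at 4× after 5 days.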

Axitinib + Luminespib = compound: CNC(=O)c1ccccc1Sc1ccc2c(/C=C/c3ccccn3)n[nH]c2c1 [Axitinib] + CCNC(=O)c1noc(-c2cc(C(C)C)c(O)cc2O)c1-c1ccc(CN2CCOCC2)cc1 [Luminespib] (partner 0.01 µM)
Method in brief: as §1

Axitinib + Foretinib = compound: CNC(=O)c1ccccc1Sc1ccc2c(/C=C/c3ccccn3)n[nH]c2c1 [Axitinib] + COc1cc2c(Oc3ccc(NC(=O)C4(C(=O)Nc5ccc(F)cc5)CC4)cc3F)ccnc2cc1OCCCN1CCOCC1 [Foretinib] (partner 0.25 µM)
Method in brief: as §1

Bemcentinib + AZD7762 = compound: Nc1nc(Nc2ccc3c(c2)CC[C@@H](N2CCCC2)CC3)nn1-c1cc2c(nn1)-c1ccccc1CCC2 [Bemcentinib] + NC(=O)Nc1cc(-c2cccc(F)c2)sc1C(=O)N[C@H]1CCCNC1 [AZD7762] (partner 0.2 µM)
Method in brief: as §1

| Cell Line | relative viability ([1]; first compound 1 µM) | relative viability ([1]; first compound 3.162 µM) | relative viability ([1]; first compound 10 µM) | relative viability ([1]; first compound 31.62 µM) | relative viability ([1]; first compound 100 µM) | relative viability (Axitinib + Luminespib; first compound 0.005 µM) | relative viability (Axitinib + Luminespib; first compound 0.01581 µM) | relative viability (Axitinib + Luminespib; first compound 0.05 µM) | relative viability (Axitinib + Luminespib; first compound 0.1581 µM) | relative viability (Axitinib + Luminespib; first compound 0.5 µM) | relative viability (Axitinib + Foretinib; first compound 0.005 µM) | relative viability (Axitinib + Foretinib; first compound 0.01581 µM) | relative viability (Axitinib + Foretinib; first compound 0.05 µM) | relative viability (Axitinib + Foretinib; first compound 0.1581 µM) | relative viability (Axitinib + Foretinib; first compound 0.5 µM) | relative viability (Bemcentinib + AZD7762; first compound 0.04 µM) | relative viability (Bemcentinib + AZD7762; first compound 0.1265 µM) | relative viability (Bemcentinib + AZD7762; first compound 0.4 µM) | relative viability (Bemcentinib + AZD7762; first compound 1.265 µM) | relative viability (Bemcentinib + AZD7762; first compound 4 µM) |
| --- | --- | --- | --- | --- | --- | --- | --- | --- | --- | --- | --- | --- | --- | --- | --- | --- | --- | --- | --- | --- |
| PC-3 [JPC-3] | 1.05 | 0.991 | 0.927 | 0.833 | 0.931 | 0.663 | 0.653 | 0.712 | 0.739 | 0.779 | 1.01 | 0.988 | 1.02 | 1 | 1.23 | 0.799 | 0.899 | 0.828 | 0.847 | 0.812 |
| LU99A | 0.772 | 0.866 | 0.861 | 0.398 | 0.776 | 0.239 | 0.265 | 0.241 | 0.302 | 0.303 | 0.901 | 0.851 | 0.818 | 0.894 | 0.936 | 0.377 | 0.375 | 0.394 | 0.344 | 0.35 |
| CAL-12T | 0.923 | 1.18 | 1.06 |  | 0.898 | 0.96 | 0.302 | 0.216 | 0.672 | 0.364 | 1.13 | 1.08 | 1.15 | 1.17 | 1.21 | 0.654 | 0.757 | 0.618 | 0.636 | 0.485 |
| NCI-H2087 | 1.1 | 1.21 | 1.07 |  | 1.03 | 0.162 | 0.202 | 0.177 | 0.176 | 0.172 | 1.09 | 0.97 | 0.937 | 1.15 | 1.21 | 1.4 | 1.41 | 1.42 | 1.49 | 1.47 |
| LCLC-97TM1 | 0.954 | 1.08 | 0.934 | 0.496 | 0.909 | 0.671 | 0.826 | 0.663 | 0.672 | 0.722 | 0.847 | 0.977 | 0.926 | 0.896 | 0.918 | 0.183 | 0.298 | 0.186 | 0.28 | 0.309 |
| BEN | 0.357 | 0.736 | 0.697 | 0.508 | 0.625 | 0.486 | 0.309 | 0.509 | 0.372 | 0.226 | 0.662 | 0.514 | 0.643 | 0.852 | 0.573 | 0.554 | 0.637 | 0.638 | 0.674 | 0.634 |
| NCI-H727 | 0.903 | 0.759 | 0.837 |  | 0.75 | 0.325 | 0.276 | 0.345 | 0.346 | 0.278 | 1.23 | 0.837 | 0.896 | 0.982 | 1.15 | 0.527 | 0.575 | 0.483 | 0.495 | 0.569 |
| NCI-H1915 | 1.09 | 1.15 |  |  | 1.12 | 0.787 | 0.795 | 0.902 | 0.84 | 0.861 | 1.07 | 1.11 | 1.08 | 1.08 | 1.13 | 0.671 | 0.695 | 0.701 | 0.726 | 0.652 |
